According to article PMC8340127 (iScience, 2021):
Like-named read-outs stand apart in the source and are kept apart here. Residues, ends and D or L forms follow the SMILES beside them.

Tests used:
[1] = assay type: biochemical; details: pH 7.4
[2] = assay type: biochemical; details: pH 7.4; remark: listed apart in the source
[3] = target: T1, Aβ42 (Homo sapiens, UniProt P05067); assay type: binding; details: pH 8.3
T1 construct: Recombinant Amyloid-β1-42 (Aβ42) wild type peptide; purchased rPeptide, Watkinsville, USA A-1163-2

[4] = target: T1, Aβ42; assay type: biochemical
[5] = target: T1, Aβ42; assay type: binding
[6] = target: T1, Aβ42; assay type: biochemical; details: pH 8
[7] = target: T1, Aβ42; assay type: biochemical; details: pH 7.3
[8] = target: T1, Aβ42; assay type: biochemical; details: pH 7.8
[9] = test system: neuroblastoma cells; details: cited from earlier work
[10] = target: T2, 15N-Aβ40 (Homo sapiens, UniProt P05067); assay: biochemical; assay type: binding
T2 construct: Uniformly isotopically ^15N -labelled Amyloid-β1-40 (Aβ40); purchased AlexoTech AB, Umeå, Sweden AB-100-05

[11] = target: T3, Aβ40 (Homo sapiens, UniProt P05067); assay type: biochemical
T3 construct: Recombinant Amyloid-β1-40 (Aβ40) wild type peptide; purchased AlexoTech AB, Umeå, Sweden AB-100-10

[12] = target: T3, Aβ40; assay type: biochemical; remark: listed apart in the source
[13] = target: T2, 15N-Aβ40; assay type: biochemical; details: pH 7.35
[14] = pH 7.4

T1 sequence (P05067 672-713): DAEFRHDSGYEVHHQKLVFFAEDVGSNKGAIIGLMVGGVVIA
T3 sequence (P05067 672-711): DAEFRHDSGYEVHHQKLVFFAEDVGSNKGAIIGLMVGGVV
T2 sequence (P05067 672-711): as above

DAEFR5HDSGY10EVHHQ15KLVFF20AEDVG25SNKGA30IIGLM35VGGVV40IA [Aβ42, Recombinant Amyloid-β1-42 (Aβ42) wild type peptide]
calcein leakage by monomeric Aβ42 [1]: around 10% | calcein leakage by monomeric Aβ42 [2]: around 10% | oligomeric state of Aβ42, aqueous [3]: mostly monomeric peptide with a rich population of small and heterogeneous oligomers | fibril diameter by AFM, Aβ42 alone [4]: approximately 10 nm | share of tetramer in the Aβ42 oligomeric population [5]: about 50% | aggregation half-time τ½, Aβ42 alone [6]: about 4 h | aggregation half-time τ½, Aβ42 alone + NaF [6]: approximately 2.5 h | time at which normalized CD signals at 198 and 220 nm meet, Aβ42 alone [7]: approximately one | β-sheet formation of Aβ42 alone [7]: transitioned into a mostly β-sheet state within 4 h | effect of 10% pre-formed seeds on Aβ42 amyloid formation, no NCAM-PrP [8]: the amyloid formation was enhanced

CC[C@H](C)[C@H](NC(=O)[C@H](CC(C)C)NC(=O)[C@H](CC(=O)O)NC(=O)[C@H](CCCCN)NC(=O)[C@@H](NC(=O)[C@H](CCCNC(=N)N)NC(=O)[C@H](CC(C)C)NC(=O)[C@@H](N)CCSC)[C@@H](C)O)C(=O)N[C@@H](Cc1c[nH]c2ccccc12)C(=O)N[C@H](C(=O)N[C@@H](CC(C)C)C(=O)N[C@@H](Cc1ccccc1)C(=O)N[C@@H](Cc1ccccc1)C(=O)N[C@@H](CC(C)C)C(=O)NCC(=O)N[C@H](C(=O)N[C@@H](C)C(=O)N[C@H](C(=O)N[C@@H](CO)C(=O)N[C@@H](CCCCN)C(=O)N[C@@H](CCCCN)C(=O)N[C@@H](CCCNC(=N)N)C(=O)N1CCC[C@H]1C(=O)N[C@@H](CCCCN)C(=O)N1CCC[C@H]1C(N)=O)C(C)C)[C@@H](C)O)[C@@H](C)O [NCAM-PrP] (H-MLRTKDLIWTLFFLGTAVSKKRPKP-NH2)
effect on Aβ-induced cytotoxicity in cells [9]: attenuates Aβ-induced cytotoxicity in cells | toxicity [9]: not toxic at the concentrations studied | Kd [10]: ~160 µM

Aβ40: Recombinant Amyloid-β1-40 (Aβ40) wild type peptide
secondary structure by FTIR [11]: both random coil and β-sheet conformations | aggregation half-time τ½, Aβ40 alone + NaF [12]: 2 h | aggregation half-time τ½, Aβ40 alone ([12]; pH 7.3): approximately 6 h

Aβ: Amyloid-β (Aβ) peptide, 40 or 42 residues long; in b38 15N-Aβ40
aggregation of Aβ40 alone (HSQC signal intensity) [13]: started to aggregate during the incubation | secondary structure in SDS micelles [14]: α-helical secondary structures
